Test results: patent US12053480B2, “Methods and pharmaceutical compositions for treating peripheral demyelinating diseases” (INSERM (INSTITUT NATIONAL DE LA SANTE ET DE LA RECHERCHE …, priority 2015, dated 2024)
“Also recorded” adds a separate entry of the source. Where two headings read alike, the source gives them in different places.

Key:
CMT1A rats [1] = test: Behavioral motor tests (rotarod, grip, CatWalk) in CMT1A rats; format: in vivo, rat
Description: […] Mice and rats were first given a pretraining trial of two days to familiarize them with the rotating rod. For control and diabetic mice latency to fall was measured at fixed speed 10 rpm over a 180 s time as a cut-off. No acceleration testing was performed for mice. For control and CMT1A rats latency to fall and maximum rpm (revolutions per minute) were measured at accelerated speed. […] Each animal underwent three trials a day. For each day, data were averaged for each animal (values from the three trials), normalized according to animal weight and then averaged for each treated group.
Detailed analysis of gait was performed on free-walking 16 weeks old diabetic mice and 12 weeks old CMT1A rats using the CatWalk method (CatWalk XT 10.5, Noldus Information Technology) during PBS or TRO19622 treatment. The runs were analyzed when the speed of crossing was constant and homogenous. At least three compliant runs were analyzed for each animal Data were averaged per animal, normalized according to animal weight and then per treated group. The resulting data provided quantitative parameters and qualitative walking patterns.
Neuromuscular strength of diabetic mice and CMT rats was assessed in standardized grip strength tests for front, hind and all limbs. All limbs grip strength was measured by rat supporting on the metal grid and pulling the animal's tail toward a horizontal grid connected to a gauge. Front and hind limb grip strength were measured by supporting the forelimbs or hindlimbs respectively and pulling the animal's tail toward a horizontal T-bar connected to a gauge. The maximum force (measured in newtons) exerted onto the T-bar or grid before the animals lost grip was recorded, and the mean of 3 repeated measurements was calculated. All data were normalized according to animal weight.
Finally, we studied the neuromuscular performance of CMT1A and control rats using behavioral motor tests. […] Moreover, using catwalk test we observed a decrease of paw time stand (FIG. 2B), hind paw distance (FIG. 2C) and an increase of paw print area (FIG. 2D). […] Therefore inhibiting mitochondrial calcium release through VDAC1 opens a major avenue toward the treatment of human CMT1A.

CMT1A rats [2] = test: Sciatic nerve morphometry (toluidine blue, electron microscopy) in CMT1A rats; format: in vivo, rat
Description: Sciatic nerves of 20 and 28 weeks old diabetic mice or 16 and 24 weeks old CMT1A rats treated with TRO19622 drug or PBS were fixed for 20 min in situ with 4% PFA and 2.5% glutaraldehyde, in 0.1 M phosphate buffer (pH7.3). Then nerves were removed and postfixed overnight in the same buffer.
After washing 30 min in 0.2M PBS phosphate buffer, the nerves were incubated with 2% osmic acid in 0.1M phosphate buffer for 90 minutes at room temperature. Then, samples were washed in 0.2M PBS phosphate buffer, dehydrated using ethanol gradient solutions and embedded in epoxy resin. For electron microscopy of sciatic nerves, ultrathin (70 nm) cross-sections were cut and stained with 1% uranylacetate solution and lead-citrate and analyzed using a HITACHI H7100 electron microscope at the ‘Centre des Resources en Imagerie Cellulaire’ (CRIC) (for further details see Cotter et al., 2010^9). Semi-thin cross-sections (0.7 μm) were cut using a microtome (Leica, RM 2155) with a diamond knife (Histo HI 4317, Diatome). Sections were stained with blue of toluidine and observed using light microscope. G-ratio was determined using GRatioCalculator plugin of Image J. At less 200 fibers per animal were analysed.
While demyelinating diabetes peripheral neuropathy is a commonly acquired disease, demyelination is also the characteristic feature of a large number of inherited diseases called Charcot-Marie-Tooth diseases (CMT). We therefore sought to test whether the inhibition of VDAC1 function could prevent demyelination in these diseases. We choose CMT1A rat strain^42 as this is arguably the most representative animal model of Charcot-Marie-Tooth disease, mimicking CMT1A the most prevalent CMT in humans^10. Twelve weeks old CMT1A rats were daily treated with TRO19622 for 15 or 30 days and one day or two months after treatment, we analyzed MAPK demyelination pathways by western blot. […] However, these effects disappeared two months after treatment. Then we analyzed phospho-c-jun activation in mSC using immunohistochemistry. […] Next, we measured Schwann cell demyelination and g-ratio by toluidine blue staining on semi-thin sciatic nerve sections and on thin sections using electron microscopy.

[3] = CMT1A rats treated for one month

CC(C)CCC[C@@H](C)[C@H]1CC[C@H]2[C@@H]3CCC4=C/C(=N\O)CC[C@]4(C)[C@H]3CC[C@]12C [TRO19622, (NZ)—N-[(8S,9S,10R,13R,14S,17R)-10,13-dimethyl-17-[(2R)-6-methylheptan-2-yl]-1,2,6,7,8,9,11,12,14,15,16,17-dodecahydrocyclopenta[a]phenanthren-3-ylidene]hydroxylamine]
grip strength (CMT1A rats [1]; [3]): significant increase | latency on accelerating rotarod (CMT1A rats [1]; [3]): significant increase | effects on demyelination, g-ratio and behavioral motor tests after stopping the treatment (CMT1A rats [1]; CMT1A rats, 2 months after stopping the treatment): disappeared; also recorded: did not last | hind paw distance (CMT1A rats [1]; CMT1A rats, catwalk test): decrease | paw print area (CMT1A rats [1]; CMT1A rats, catwalk test): increase | paw time stand (CMT1A rats [1]; CMT1A rats, catwalk test): decrease | g-ratio of myelinated fibers (CMT1A rats [2]): significant increase | number and diameter of axons in the nerve (CMT1A rats [2]): increased | number of demyelinated fibers (CMT1A rats [2]): reduction | g-ratio of myelinated fibers (CMT1A rats [2]; listed as TRO16922): restored a correct g-ratio | number and diameter of axons in the nerve (CMT1A rats [2]; listed as TRO16922): rescued axonal loss
